Experimental data published in patent US5808139A (Ligand Pharmaceuticals Incorporated, priority 1994, dated 1998).

Tests used:
[1] = tested on: human progesterone receptor altered at the Tau-1 location; assay: Co-transfection assay in CV-1 cells, progesterone receptor altered at Tau-1, antagonist activity; type: cell-based; settings: for Efficacy (% maximal response relative to RU-486), CV-1 cells: antagonist activity; for IC50: concentration required to reduce the maximal response by 50%, read-out: Potency (IC50), CV-1 cells
Description: This assay is described in further detail in U.S. Pat. Nos. 4,981,784 and 5,071,773, which are incorporated herein by reference. The co-transfection assay provides a method for identifying functional ligands (either agonists which mimic, or antagonists which inhibit, the effect of hormones) for ligand-responsive receptor proteins.
The co-transfection assay provides a mechanism to evaluate ability of a compound to function as an agonist or antagonist of the activity modulated by an intracellular receptor. The co-transfection assay mimics an in vivo system in the laboratory. In the co-transfection assay, a cloned gene for an intracellular receptor is introduced by transfection (a procedure to induce cells to take up foreign genes) into a background cell substantially devoid of endogenous intracellular receptors. This introduced gene directs the recipient cells to make the intracellular receptor protein. A second gene is also introduced (co-transfected) into the same cells in conjunction with the intracellular receptor gene. This second gene functions as a reporter for the transcription-modulating activity of the target intracellular receptor. The reporter acts as a surrogate for the products normally expressed by a gene under control of the target receptor and its natural hormone.
A preferred reporter gene is one which expresses the firefly enzyme luciferase. The co-transfection assay can detect small molecule agonists or antagonists of target intracellular receptors. Exposing the cells to an agonist ligand increases reporter activity in the transfected cells that can be conveniently measured, reflecting ligand-dependent, intracellular receptor-mediated increases in reporter transcription. To detect antagonists, the co-transfection assay is carried out in the presence of a constant concentration of an agonist known to induce a defined reporter signal. Increasing concentrations of a test antagonist will decrease the reporter signal. The co-transfection assay is therefore useful to detect both agonists and antagonists of specific intracellular receptors. It determines not only whether a compound interacts with a particular intracellular receptor, but also whether this interaction mimics (agonizes) or blocks (antagonizes) the effects of the natural regulatory molecules on target gene expression.
Co-transfected cells are exposed to a medium to which is added the potential ligand that is being evaluated. If the candidate ligand diffuses into the cell and binds to the receptor and the resulting complex functions as an agonist, it binds to the co-transfected reporter gene and initiates transcription. When that gene is one that expresses, for example, luciferase, luciferase is produced which catalyzes a light-emitting reaction with its substrate luciferin. Thus, after cell lysis and the introduction of luciferin, the amount of light produced relative to the concentration of candidate ligand used in the assay provides a measure of the potency and efficacy of the compound tested. Antagonist activity is evaluated by adding the candidate ligand and a known agonist to the co-transfected cells.
The receptor cDNA was introduced in a mammalian expression vector under the control of the Rous Sarcoma virus LTR. […] A reporter vector was also transfected, containing a firefly luciferase gene under the control of the hormone-responsive promoter. […] The level of luciferase activity was then measured in cell extracts. Light emission is directly proportional to the effectiveness of the hormone-receptor complex in activating gene expression.
A total of three replicates per concentration point were tested for each compound, and the EC50 was calculated for each positive response. Both agonist and antagonist activity for each test compound was determined in parallel. […]

[2] = tested on: progesterone receptor (T47D cells); assay: Antagonist assay in T47D (human breast cancer) cells (Tables 1 and 2); type: cell-based; settings: for Efficacy (% maximal response relative to RU-486), T47D cells: antagonist activity; for IC50: concentration required to reduce the maximal response by 50%, read-out: Potency (IC50), T47D cells
Description: The functional activities of the cyclocymopol analogues in the human breast cell line, T47D, were also investigated. T47D cells have proven to be a particularly useful model to investigate the molecular actions of sex steroids because they contain endogenous functional receptors for, and respond to, progestins, and their respective antagonists. […] In T47D cells, progestins induce de novo synthesis of a plasma-associated alkaline phosphatase, which has been reported to be similar, if not identical, to the alkaline phosphatase present in the normal breast and human milk. These tests were conducted according to the following illustrative example.
The assay was also run using T47D (human breast cancer) cells.

[3] = target: T1, human progesterone receptor (Homo sapiens, UniProt P06401); assay: Progesterone receptor binding (displacement of 3H-progesterone, whole cell extract of transfected CV-1 cells); design: expressed in transfected cells; host or cells: CV-1 cells (calcium phosphate transfection), whole cell extract
T1 sequence (P06401 1-933): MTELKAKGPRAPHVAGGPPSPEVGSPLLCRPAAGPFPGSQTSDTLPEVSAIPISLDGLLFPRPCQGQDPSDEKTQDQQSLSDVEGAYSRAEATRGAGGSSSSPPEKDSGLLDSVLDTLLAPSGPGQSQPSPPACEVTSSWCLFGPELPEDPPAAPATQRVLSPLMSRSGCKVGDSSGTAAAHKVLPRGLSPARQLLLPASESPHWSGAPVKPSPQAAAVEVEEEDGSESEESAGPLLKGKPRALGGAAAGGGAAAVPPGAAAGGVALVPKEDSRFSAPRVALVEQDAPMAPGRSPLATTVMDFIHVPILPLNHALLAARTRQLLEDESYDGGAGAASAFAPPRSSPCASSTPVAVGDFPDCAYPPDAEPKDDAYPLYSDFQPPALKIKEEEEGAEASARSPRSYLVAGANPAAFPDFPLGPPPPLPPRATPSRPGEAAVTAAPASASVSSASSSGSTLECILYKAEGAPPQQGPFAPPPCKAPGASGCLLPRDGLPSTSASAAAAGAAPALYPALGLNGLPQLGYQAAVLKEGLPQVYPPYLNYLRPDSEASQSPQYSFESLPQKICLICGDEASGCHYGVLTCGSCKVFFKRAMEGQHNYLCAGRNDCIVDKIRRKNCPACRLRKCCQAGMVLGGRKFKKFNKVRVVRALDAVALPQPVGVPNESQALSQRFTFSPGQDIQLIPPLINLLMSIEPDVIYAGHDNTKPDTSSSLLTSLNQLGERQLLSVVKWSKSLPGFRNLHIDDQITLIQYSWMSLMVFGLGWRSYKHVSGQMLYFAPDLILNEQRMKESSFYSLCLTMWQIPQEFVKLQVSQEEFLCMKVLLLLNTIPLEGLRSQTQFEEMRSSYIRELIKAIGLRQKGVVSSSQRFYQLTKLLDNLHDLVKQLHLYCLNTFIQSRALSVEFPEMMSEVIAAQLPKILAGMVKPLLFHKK
Method: These tests were conducted according to the following illustrative example.
CO2 for 40 hours prior to harvest.
After incubation, cells were harvested and washed in phosphate buffered saline. Whole cell receptor extract was prepared by homogenizing the harvested cells in Tris-HCl buffer, pH=7.4, containing 30% glycerol, 1 mM EDTA, 12 mM monothioglycerol, 1 mM PMSF, and 0.5M potassium chloride. The homogenate was incubated at 4° C. for 60 min with resuspension every 10 min. The suspension was centrifuged (105,000×g, 60 min) and the supernatant was collected and flash frozen in liquid nitrogen and stored frozen at -70° C.
To a […] final volume incubation mixture, […] of 7.5% (w/v) dextran-coated charcoal suspension in gelatin phosphate buffer was added. The mixture was vortexed and incubated at 4° C. for 10 min and then centrifuged at 3000 rpm for 10 min. The amount of bound tritiated hormone was determined by liquid scintillation spectrophotometry of an aliquot of the supernatant. […]

Row | SMILES | Efficacy (% maximal response relative to RU-486), CV-1 cells [1] [%] | IC50 [1] [nM] | Efficacy (% maximal response relative to RU-486), T47D cells [2] [%] | IC50 [2] [nM] | Kd [3] [nM]
1 | C=C1C=C[C@@H](C)C(C)(C)[C@@H]1Cc1cc(OC)c(Br)cc1OC(C)=O (relative stereo) [N, trans-1-Methylidene-6-(2'-acetoxy-4'-bromo-5'-methoxyphenyl)methyl-4,5,5-trimethylcyclohex-2-ene] | 90 | 1000 | 70 | 325 | 195
2 | C=C1C=C(C)CC(C)(C)C1Cc1cc(OC)c(Br)cc1O (centres unmarked) [II, 1-Methylidene-6-(2'-hydroxy-4'-bromo-5'-methoxyphenyl)methyl-3,5,5-trimethylcyclohex-2-ene] |  | 3570 |  |  | 
3 | C=C1C=CCC(C)(C)C1Cc1cc(OC)c(Br)cc1OC(C)=O (centres unmarked) [L, 1-Methylidene-6-(2'-acetoxy-4'-bromo-5'-methoxyphenyl)methyl-5,5-dimethylcyclohex-2-ene] | 55 | 825 | 75 | 200 | 90
4 | C=C1C=C(C)CC(C)(C)C1Cc1cc(OC)c(Br)cc1OC(C)=O (centres unmarked) [H, 1-Methylidene-6-(2'-acetoxy-4'-bromo-5'-methoxyphenyl)methyl-3,5,5-trimethylcyclohex-2-ene] | 40 | 700 | 60 | 775 | 60
5 | C=C1C=CCC(C)(C)C1Cc1ccc([N+](=O)[O-])c(C)c1 (centres unmarked) [M, 1-Methylidene-6-(3'-methyl-4'-nitrophenyl)methyl-5,5-dimethylcyclohex-2-ene] | 90 | 875 | 80 | 350 | 75
6 | C=C1CCCC(C)(C)C1Cc1ccc(Br)cc1 (centres unmarked) [O, 1-Methylidene-2-(4'-bromophenyl)methyl-3,3-dimethylcyclohexane] | 90 | 1000 | 85 | 850 | 445
7 | C=C1C=C[C@@H](C)C(C)(C)[C@@H]1Cc1cc(OC)c(Br)cc1O (relative stereo) [KK, trans-1-Methylidene-6-(2'-hydroxy-4'-bromo-5'-methoxyphenyl)methyl-4,5,5-trimethylcyclohex-2-ene] | 75 | 1600 | 76 | 1300 | 346
8 | C=C1CCCC(C)(C)C1Cc1cc(OC)c(Br)cc1OC(C)=O (stereo in doubt) [B, (3S)-1-Debromocyclocymopol monomethyl ether, acetate] | 45 | 400 | 65 | 85 | 35
9 | C=C1CCC(C)(C)C1Cc1cc(OC)c(Br)cc1O (centres unmarked) [P, 1-Methylidene-2-(2'-hydroxy-4'-bromo-5'-methoxyphenyl)methyl-3,3-dimethylcyclo-pentane] | 100 | 1200 | 60 | 275 | 440
10 | C=C1CCCC(C)(C)C1Cc1cc(OC)c(Br)cc1O (stereo in doubt) [G, (3S)-1-Debromocyclocymopol monomethyl ether] | 45 |  | 50 |  | 
11 | C=C1C=CCC(C)(C)C1Cc1cc(OC)c(Br)cc1O (centres unmarked) [K, 1-Methylidene-6-(2'-hydroxy-4'-bromo-5'-methoxyphenyl)methyl-5,5-dimethylcyclohex-2-ene] | 70 |  | 70 |  | 
12 | C=C1C=C(C)CC(C)(C)C1C/C=C/c1cc(OC)c(Br)cc1O (stereo not drawn) [GG, 1-Methylidene-6-[trans-(2'-Hydroxy-4'-bromo-5'-methoxyphenyl)-1-propenyl]-3,5,5-trimethylcyclohex-2-ene] | 61 | 3300 | 65 | 1600 | 
13 | C=C1C=C(C)CC(C)(C)C1Cc1ccc2nonc2c1 (centres unmarked) [FF, 1-Methylidene-6-(benzofurazan-5'-yl)methyl-3,5,5-trimethylcyclohex-2-ene] | 72 | 1950 | 71 | 775 | 
14 | C=C1C(C)=CCC(C)(C)C1Cc1cc(OC)c(Br)cc1OC(C)=O (stereo in doubt) [Z, (3R)-5-Methyl-5,6-dehydro-1-debromocyclocymopol monomethyl ether, acetate] | 83 | 660 | 81 | 210 | 
15 | C=C1CCCC(C)(C)C1Cc1cc(OC)c(Br)cc1O (centres unmarked) [C, 1-Methylidene-2-(2'-hydroxy-4'-bromo-5'-methoxy-phenyl)methyl-3.3-dimethylcyclohexane] | 55 |  | 70 |  | 
